Measurements: the OPERA property sets (Mansouri et al. 2018)

Conditions: 25.0 °C
In the case of `Clc1cc(Cl)c(-c2ccccc2)cc1Cl`, the log10 OH rate constant (cm³/molecule/s) is reported as -11.9. `Clc1ccc(-c2cc(Cl)ccc2Cl)cc1` showed a log10 OH rate constant (cm³/molecule/s) of -11.9. `Clc1ccc(-c2ccccc2)c(Cl)c1` gave a log10 OH rate constant (cm³/molecule/s) of -11.6. In the case of `Clc1ccc(-c2ccc(Cl)cc2Cl)c(Cl)c1`, the log10 OH rate constant (cm³/molecule/s) is reported as -12. With `Clc1ccc(-c2ccc(Cl)cc2Cl)cc1` the log10 OH rate constant (cm³/molecule/s) was -12. For `Clc1ccc(Cl)c(-c2cccc(Cl)c2Cl)c1`, the log10 OH rate constant (cm³/molecule/s) was -12.1. For `Clc1ccc(-c2ccccc2Cl)cc1Cl`, the log10 OH rate constant (cm³/molecule/s) was -12. Work on `Clc1c(Cl)c(Cl)c(-c2ccccc2)c(Cl)c1Cl` yielded a log10 OH rate constant (cm³/molecule/s) of -12. `Clc1ccc(Cl)c(-c2c(Cl)ccc(Cl)c2Cl)c1` showed a log10 OH rate constant (cm³/molecule/s) of -12.4. Work on `Clc1ccc(-c2c(Cl)ccc(Cl)c2Cl)cc1Cl` yielded a log10 OH rate constant (cm³/molecule/s) of -12.2.
